Test results published in a melting point compilation (Tetko et al.; mined from patent text by program, amines drawn as free bases though some values may be those of a salt).

Row | Compound | melting point
1 | CCCCCOc1cc(C(=O)O)cc([N+](=O)[O-])c1C(=O)c1ccccc1 | 163 to 165 °C
2 | CC=CC(=O)Nc1cccc(OC(=O)Nc2ccc(Cl)c(Cl)c2)c1 | 193 to 194 °C
3 | COc1ccc(S(=O)(=O)C(Cc2ccc3ccccc3c2)C(=O)NO)cc1 (centres undefined) | 161 to 163 °C
4 | CCCCCCCCCCCCCCCCCC(=O)Nc1ccn(C2OC(CO)C(O)C2O)c(=O)n1 (centres undefined) | 147 to 151 °C
5 | CCCCC(=O)Nc1ccc(Cl)c(-n2nc(CCCC)c(Cc3ccc(-c4ccccc4S(=O)(=O)NC(=O)c4ccccc4Cl)cc3F)c2C#N)c1 | > 95 °C
6 | CN1CCC(Oc2c(F)c(F)c(F)c(F)c2F)(c2ccc(C(F)(F)F)cc2)CC1 | 45 to 48 °C
7 | CCS(=O)(=O)c1ccc(C(=O)NCc2ccc3c(c2)C(=O)N(C2CCC(=O)NC2=O)C3=O)cc1 (centres undefined) | 182 to 184 °C
8 | CCCCc1ccc2nc(NC(=O)c3csc(CNC(=O)OC(C)(C)C)n3)sc2c1 | 143 to 144 °C
9 | CC(C)[C@H](NC(=O)CN1CCN(CC(=O)O)C1=O)C(=O)N1CCC[C@H]1C(=O)N[C@H](C(=O)C(F)(F)F)C(C)C | 177 to 178 °C
10 | CCC(C)(Oc1ccc(-c2ccccc2)cc1OC)C(=O)O (centres undefined) | 50 to 55 °C
11 | COc1cc([N+](=O)[O-])cnc1Cl | 40 to 41 °C
12 | S=C=NCCC1CC(c2ccccc2)=NO1 (centres undefined) | 54 to 56 °C
13 | Cc1nnc2c(Cl)nc([N+](=O)[O-])c(N)n12 | 220 °C
14 | CC1CC(C)OP(=O)(Cc2ccc([N+](=O)[O-])cc2)O1 (centres undefined) | 152 to 153 °C
15 | COCCNc1nc(N)nc(-c2ccccc2)c1-c1ccc(=O)n(C(C)C)n1 | 168 to 170 °C
16 | CCN(CC)CCC(=O)Nc1cccc2c1C(=O)c1c(NC(=O)CCN(CC)CC)cccc1C2=O | 166 to 167 °C
17 | COC(=O)CSC(c1ccccc1)(c1ccccc1)c1ccccc1 | 111 to 115 °C
18 | Cc1ccc(C(=O)OC2CCN(Cc3cccc([N+](=O)[O-])c3)CC2)cc1 | 90 to 93 °C
19 | CCOc1ccc(C2CC(C(C)(C)C)=NN2c2ccc(C(=O)O)cc2)cc1 (centres undefined) | 160 °C
20 | COC(=O)NCC(C)OS(C)(=O)=O (centres undefined) | 37 to 40 °C
21 | CC(C)(COc1ncc(C(F)(F)F)cc1Cl)C(=O)C(Oc1ccc(F)cc1)n1cncn1 (centres undefined) | 104 to 106 °C
22 | Cc1nn(-c2c(Cl)cc(C(F)(F)F)cc2Cl)c(Cl)c1C=O | 201 °C
23 | CC(Oc1ccc(-c2ccc(S(N)(=O)=O)c(F)c2)cc1)C(O)CCc1cccnc1 (centres undefined) | 178 to 180 °C
24 | O=C(NOC(=O)C(F)(F)F)C(F)(F)F | 40 to 50 °C
25 | Brc1ccc2c(c1)Sc1ccccc1CC2 | 69 to 71 °C

Row | Compound | melting point
26 | NS(=O)(=O)c1ccc(NC(=O)Nc2ccc(Oc3ccccc3)cc2)cc1 | 236 to 237 °C
27 | O=Cc1cccc(COc2cccc(-c3ccsc3)c2)c1 | 62 to 63 °C
28 | COc1cc(N)c(Cl)cc1-c1nc(-c2cccnc2)c(C)[nH]1 | 178 to 180 °C
29 | N#Cc1cc(Cc2cccc(Cl)c2)ccc1N | 84.5 to 85.5 °C
30 | O=C(/C=C/c1ccccc1Sc1ccc(Cl)cc1)NC1CCC(O)CC1 (centres undefined) | 86 to 88 °C
31 | COC(=O)c1ccsc1S(=O)(=O)Cl | 51 to 54 °C
32 | COc1cc(CCNC(=O)c2cccnc2)ccc1O | 192 to 194 °C
33 | C1=C(c2ccc3ccccc3c2)CCC2(C1)CCNCC2 | 137 to 141 °C
34 | COc1ccc(-c2ocnc2-c2cc(OC)c(OC)c(OC)c2)cc1F | 139 to 140 °C
35 | Cc1ccc2c(n1)Oc1ccc(C(C)C(=O)OCC(N)=O)cc1C2 (centres undefined) | 175 to 177 °C
36 | Cc1oc(-c2ccccc2)nc1COc1ccc2cc(CCCCc3nnn[nH]3)oc2c1 | 114 to 115 °C
37 | COc1ccc(-c2cc3ccccc3[nH]2)cc1NC(=S)Nc1cccc(CC(=O)O)c1 | 174 to 175 °C
38 | COc1cc(C(=O)c2cccnc2)ccc1OCc1ccccc1 | 76 °C
39 | CCCNC(=NC(=Nc1ccccc1)N1CCOCC1)C(C)C | 122 to 124 °C
40 | O=C1NCCc2ccc(OCCCCN3CCN(c4cccc(Cl)c4Cl)CC3)cc2N1 | 185 to 186 °C
41 | O=c1c(Br)cc(Cl)cn1Cc1ccccc1 | 108 to 110 °C
42 | Cc1ccc2c(c1)c1cc(-c3ccc(Cl)cc3Cl)c(=O)n(C)c1n2CC#N | 270 °C
43 | COC(=O)CCSc1cc(=O)c2c(O)cc(O)c(C3CCN(C)CC3O)c2o1 (centres undefined) | 78 °C
44 | CNC(=O)C(=NOC)c1ccccc1Oc1cccc(-c2ccc(Cl)cc2)c1 | 118 to 121 °C
45 | N#CNc1ccccc1N1CCOCC1 | 175 to 176 °C
46 | Cc1ccc(Oc2ccccc2-n2cc(C(=O)O)cn2)c(O)c1 | 219 to 221 °C
47 | CCCCOc1nccc2c1C(c1ccccc1C(F)(F)F)C(C(=O)OCC)=C(C)N2 (centres undefined) | 174 to 175 °C
48 | O=C(O)C1=Cc2cc(Oc3ccc(C(F)(F)F)cc3)ccc2OC1C(F)(F)F (centres undefined) | 154 °C
49 | Clc1cccc(Nc2ncnc3[nH]c(CN4CCOCC4)cc23)c1 | 244 to 246 °C
50 | CC(C)(C)OC(=O)c1cn(-c2ccc(Cl)cc2)c(-c2ccc(Cl)cc2Cl)n1 | 179 to 181 °C

Row | Compound | melting point
51 | COc1cc(NC(=S)NC(=O)/C=C/c2ccco2)ccc1-c1cc2ccccc2oc1=O | 227 to 230 °C
52 | Cc1cccc(Oc2cccc(C#CC(C)N(O)C(N)=O)c2)n1 (centres undefined) | 133 to 135 °C
53 | O=C(CC1CSCCC1=O)c1ccc(Cl)cc1 (centres undefined) | 78 to 81 °C
54 | Cc1ccc(C(=O)NCc2cc(C(C)C)no2)cc1 | 107 to 116 °C
55 | CCOC(=O)c1cc2ccc(OC)cc2n1CCNC(C)=O | 159 to 160 °C
56 | O=C(NC12CC3CC(CC(C3)C1)C2)c1ncon1 | 141 to 142 °C
57 | COc1cc(Nc2nccc(-c3ccc(NCCN(C)C)nc3)n2)cc(OC)c1OC | 110 to 111 °C
58 | Fc1ccccc1CC1CCN(C2CC=C(c3ccc4c(c3)OCO4)CC2)CC1 (centres undefined) | 118 to 119 °C
59 | CC(C)(C)c1cc(NC(=O)Nc2csc(-c3cccnc3)n2)no1 | 230 to 232 °C
60 | O=C1CC(c2cccc(-n3ccnc3)c2)=Nc2cc(CO)c(C#Cc3ccccc3)cc2N1 | 227 °C
61 | CCCCNC(=O)Oc1ccc(Oc2ccc([N+](=O)[O-])cc2)cc1 | 122 to 124 °C
62 | C[C@H](CSC(=O)c1ccccc1)C(=O)N1C(c2cccs2)SC[C@H]1C(=O)O (some centres undefined) | 136 to 137 °C
63 | Cc1cc(F)ccc1C(=O)c1ccc(F)cc1C | 50 to 52 °C
64 | Cc1cccc(S(=O)(=O)Nc2cc(C)c(S(=O)(=O)C[N+](=O)[O-])c(C)c2)c1 | 179 to 181 °C
65 | C#CCOC(=O)c1cc(-n2c(=O)cc(C)n(C)c2=O)c(F)cc1C#N | 174 to 177 °C
66 | OCc1cn(-c2cc(F)cc(Br)c2)cn1 | 134 to 138 °C
67 | COc1c(C=CC(=O)O)cccc1Oc1ccccc1C | 143 to 146 °C
68 | C=CCc1cc2c(c(CC=C)c1OC1CCCCO1)CCC(=O)N2 (centres undefined) | 119 to 120 °C
69 | CCOC(=O)c1nc(NC(C)=O)sc1Cc1ccc(SCC)cc1 | 190 °C
70 | CC(C)(C)c1cc(N2CCN(C(=O)c3ccc([N+](=O)[O-])cc3)C2=O)cc(C(C)(C)C)c1O | > 260 °C
71 | CCOC(=O)C(C)Oc1ccc(N(C)c2cc3ccccc3c(O)n2)cc1 (centres undefined) | 96 °C
72 | Cc1cc(Cl)ccc1NC(=S)Nc1ncccc1OCc1c(F)cccc1Cl | 176 to 177 °C
73 | CNS(=O)(=O)c1cc(C(=O)CCl)ccc1Cl | 153 °C
74 | CC(=O)NNc1ccnc2c(NC(=O)c3c(Cl)cccc3Cl)ccc(Cl)c12 | 158 to 161 °C
75 | O=C(C1CCCCC1)N1CC(=O)N2CCCc3ccccc3C2C1 (centres undefined) | 187 to 190 °C

Row | Compound | melting point
76 | CCCCCCCCc1ccc(C=CCO)cc1 | 30 °C
77 | COc1cc(-c2ccc3cc4c(cc3c2)C(C)(C)CCC4(C)C)ccc1C(=O)O | 177 to 178 °C
78 | O=C(NCC(=O)N1c2ccccc2N(Cc2ccccc2)C(=O)[C@H]2CCC[C@H]21)c1ccc2c(c1)OCO2 (relative stereo) | 174 to 176 °C
79 | N#Cc1c(Cl)n(C2OC(CF)C(O)C2O)c2cc(Cl)c(Cl)cc12 (centres undefined) | 246 to 247 °C
80 | CC(C)C(NC(=O)OCC1c2ccccc2-c2ccccc21)C(=O)Nc1n[nH]c(=S)s1 (centres undefined) | 141 to 144 °C
81 | COC(=O)CC1CC(c2ccc(C(=N)NC(=O)OC(C)(C)C)cn2)=NO1 (centres undefined) | 143 °C
82 | COC(=O)c1ccc(C(O)c2cc3cc(Cl)cnc3n2S(=O)(=O)c2ccc(C(C)C)cc2)cc1 (centres undefined) | 77 °C
83 | Cc1ccc2nc(OCC(=O)NCCCN(C)Cc3ccc(Cl)c(Cl)c3)oc2c1 | 62 to 66 °C
84 | Cc1ccc(Sc2ccccc2C(=O)N(C)C)c([N+](=O)[O-])c1 | 105 to 106 °C
85 | Cc1ccc(S(=O)(=O)Oc2ccc(CN3CCOCC3)nc2)cc1 | 68 to 69 °C
86 | COc1cc2c(cc1OC)C(Cc1ccncc1)(Cc1ccncc1)CN=C2c1ccccc1 | 168 to 169 °C
87 | CN=C(NC#N)C1=CC2(CCOCC2)Oc2ccc([N+](=O)[O-])cc21 | 293 to 294 °C
88 | C#CCOc1cc(N=C(C=NOC)N2CCCC2)c(F)cc1Cl | 73 to 75 °C
89 | C[C@H]1[C@H]2O[C@H]2C(S(=O)(=O)c2ccccc2)=C[C@H](C)[C@H]1O[Si](C)(C)C(C)(C)C | 89 to 90 °C
90 | N#CCC(O)(c1ccc(Cl)cc1)c1ccc(-c2ccc(Br)cc2)cc1 (centres undefined) | 160 to 161 °C
91 | C=CCn1c(=O)c([N+](=O)[O-])c(O)c2ccccc21 | 125 to 127 °C
92 | CCOC(=O)Cc1ccc(Oc2ccc([N+](=O)[O-])cc2)cc1 | 70.5 to 73 °C
93 | O=C(Nc1ccc(NCc2ccccc2)cc1)C(=O)N1CCC(Cc2ccc(F)cc2)CC1 | 145 to 148 °C
94 | CCCC(=O)CCCCCC(=O)N[C@@H](C)C(=O)OC | 51 to 54 °C
95 | COc1ccc2c(c1)C(=O)C(=O)N2CCN(C(C)C)C(C)C | 81 to 82.5 °C
96 | CCCOc1ccccc1C(=O)CCC(=O)O | 77 to 79 °C
97 | COc1ccc(-c2c(NC(=O)Nc3ccc(F)cc3F)cnc3ccc(Cl)cc23)c(O)c1OC | 218 to 220 °C
98 | O=C(CCc1ccc(OCc2ccccc2)cc1)C(F)(F)F | 71 to 72 °C
99 | COc1ccc(C(=O)c2ccccc2)cc1C(=O)O | 150 °C
